Common to all, as to format: physicochemical
Data set [1] can be described thus: Specific surface area of the powder, multipoint BET method. As for the experimental part: A specific surface area of a powder of the compound A obtained by the above-described methods and the following Examples can be measured by known method, for example, multipoint BET method.
A specific surface area of the compound A was adjusted to give the crystalline powders with different specific surface area by the following method. As well, the measurement of specific surface area was performed by multipoint BET method.

Data set [2] is described as follows: Accelerated test (storage stability: purity by HPLC, degree of moisture by Karl Fisher). The settings on record: for Degree of moisture (%) / Purity (%): crushing composition. As for the experimental part: 1 g of the powder of compound A was poured into the two-lay plastic bag and closed firmly with banding band. This was poured into miniature fiber dram and then this was preserved in the stability tester under the condition for 6 months, at 40° C., at 75% relative humidity. And then, the purity (quantitative value) and the degree of moisture (%) of the powder of compound A were measured. The measurement of the degree of moisture was performed by known method: the moisture vaporization method/Karl Fisher electrometrical titration method. The measurement of purity was performed by high performance liquid chromatography (HPLC).
About 0.04 mg/mL N,N-dimethylformamide/acetontirile (3/7) solution of reference material and measurement sample of compound A was prepared. In this case, the concentration of the solutions was precisely found. These solutions was set under the below test condition and the purity of measurement sample was calculated from the obtained area value of the peak.
• The detector: ultraviolet absorptiometer (measurement wavelength: 278 nm), • The column: YMC-Pack ODS-A-302 (inside diameter 4.6 mm, length 15 cm), • The mobile phase: acetonitrile/5 mmol/L sodium acetate buffer (It was prepared to pH 4.5 using acetate.)/2-propanol mixture (5/4/1), • The flow: The retention time of the compound A was prepared to be about 12 minutes (about 1.0 mL/min), • The column temperature: the constant temperature in the vicinity of 40° C. • The injection volume: 20 μL.

The nature of data set [3]: Dissolution test (Japanese Pharmacopoeia method 2, Paddle method). To be noted: pH 6.8 McIlvaine buffer, 2.0% (w/v) sodium lauryl sulfate, 900 mL, 37°C, 50 rpm, 30 mg. As for the experimental part:
In the present invention, the dissolution rate in the dissolution test, according to dissolution test method 2 (Paddle method) of general test in the Japanese Pharmacopoeia, is the value that the method is performed on condition that 50 rounds per minute in pH6.8 McIlvaine buffer solution including 2.0% (w/v) sodium lauryl sulfate. More detail, it includes the method described in the following method or the method pursuant thereof and so on.
The powder of compound A prepared in the above described Preparation Example 4 (specific surface area=12.51 m^2/g) and Preparation Example 6 (specific surface area=5.46 m^2/g) was sieved by 60 mesh sieve (250 μm) respectively and the sieved material was weighed out 30 mg and then poured into the test solution. The dissolution test was performed under the below described condition of the dissolution test. However, the compound A was suspended with about 2 mL test solution and then the compound A poured into the test solution. The eluate 10 mL obtained at each sampling time was filtrated with membrane filter having 0.45 μm pore diameter. The first filtrate 2 mL was removed and the rest of filtrate was as the solution of test material. The compound A prepared in Preparation Example 12 was precisely weighed out about 33.3 mg and it was dissolved by adding methanol to adjust 100 mL. Among this solution, 5 mL was weighed out and it was added by test solution to adjust 50 mL. It was made as the standard solution (0.0333 mg/mL) that […] of the compound A was dissolved. The absorbance of the solution of test material and standard solution in wavelength 278 nm was measured by the measurement of ultraviolet visible absorbance respectively and according to the below formula, the dissolution rate was found.
The Dissolution Test Condition:
• Apparatus: The Japanese Pharmacopoeia, general test, dissolution test method 2 (Paddle method), • Test solution; McIlvaine buffer solution containing of 2.0% (w/v) sodium lauryl sulfate, pH 6.8 • Test solution volume: 900 mL • Temperature: 37±0.5° C. • Rotation speed: 50 rotations per minute • Sampling volume of eluate: 10 mL • Sampling time: 5, 10, 15, 30, 45, 60 and 90 minutes. [formula] [formula] • W: The volume of compound A containing of standard solution (33.3 mg) • t: The number of sampling • C: The volume of compound A poured into the test solution (30 mg) • Ct: The concentration of compound A in the solution of test material at t times sampling • ΣCn: The sum of the concentration of compound A in the solution of test material from n=1 to t−1 • At: The absorbance of the solution of test material • As: The average of absorbance of the […] of repeated measurement at three times • V: The volume of the test solution (900 mL) • v: The sampling volume of the eluate (10 mL)

[4] abbreviates: 6 months at 40°C, 75% relative humidity.
The mark [5] stands for this setting: over 6 months at 40°C, 75% relative humidity.

Nine molecules from patent US20080026067A1, “Method for Increasing Specific Surface Area of Slightly Soluble Drug” (priority 2004, published 2008) can be followed below.

As to `Cc1ccc(-c2nc(CCOc3cccc4c3CCC=C4CCC(=O)O)c(C)o2)cc1` [Adjustment Example 1, 3-(5-{2-[5-methyl-2-(4-methylphenyl)-1,3-oxazol-4-yl]ethoxy}-3,4-dihydronaphthalen-1-yl)propanoic acid], the specific surface area in data set [1] (powder as obtained) came to 42.24 m^2/g.

In data set [1] (powder as obtained), `Cc1ccc(-c2nc(CCOc3cccc4c3CCC=C4CCC(=O)O)c(C)o2)cc1` [Adjustment Example 2, 3-(5-{2-[5-methyl-2-(4-methylphenyl)-1,3-oxazol-4-yl]ethoxy}-3,4-dihydronaphthalen-1-yl)propanoic acid] gave a specific surface area of 20.43 m^2/g.

In turn, `Cc1ccc(-c2nc(CCOc3cccc4c3CCC=C4CCC(=O)O)c(C)o2)cc1` [Adjustment Example 3, 3-(5-{2-[5-methyl-2-(4-methylphenyl)-1,3-oxazol-4-yl]ethoxy}-3,4-dihydronaphthalen-1-yl)propanoic acid] came in with a specific surface area in data set [1] (crushing composition (jet mill crushed)) of 20.6 m^2/g. This molecule also gave a specific surface area in data set [1] (non-crushing composition) of 19.6 m^2/g. Moreover, in data set [2] (0 month), the “Degree of moisture (%)” value is recorded as 0.3% and the “Purity (%)” value was determined as 95.4%. Also, in data set [2] (setting [4]), the “Degree of moisture (%)” value is 0.6% and the “Purity (%)” value turned out to be 94.4%. Moreover, in data set [2] (setting [5]), the “change (increase) of degree of moisture” value amounted to 0.3% and the decrease of purity turned out to be 1.0%.

In data set [1] (powder as obtained), `Cc1ccc(-c2nc(CCOc3cccc4c3CCC=C4CCC(=O)O)c(C)o2)cc1` [Adjustment Example 4(1), 3-(5-{2-[5-methyl-2-(4-methylphenyl)-1,3-oxazol-4-yl]ethoxy}-3,4-dihydronaphthalen-1-yl)propanoic acid] registered a specific surface area of 6.7 m^2/g.

As for `Cc1ccc(-c2nc(CCOc3cccc4c3CCC=C4CCC(=O)O)c(C)o2)cc1` [Adjustment Example 4(2), 3-(5-{2-[5-methyl-2-(4-methylphenyl)-1,3-oxazol-4-yl]ethoxy}-3,4-dihydronaphthalen-1-yl)propanoic acid], in data set [1] (powder as obtained), the specific surface area turned out to be 17.8 m^2/g.

Take `Cc1ccc(-c2nc(CCOc3cccc4c3CCC=C4CCC(=O)O)c(C)o2)cc1` [Adjustment Example 4, 3-(5-{2-[5-methyl-2-(4-methylphenyl)-1,3-oxazol-4-yl]ethoxy}-3,4-dihydronaphthalen-1-yl)propanoic acid]: the “Dissolution rate (%)” value in data set [3] (0 minutes) worked out at 0.00%; in data set [3] (5 minutes) it was 65.46%; in data set [3] (10 minutes) it was 76.67%; in data set [3] (15 minutes), 82.17%; in data set [3] (30 minutes), 88.95%; in data set [3] (45 minutes), 92.15%. The “Dissolution rate (%)” value is listed as 94.10% in data set [3] (60 minutes) and 96.20% in data set [3] (90 minutes). The same molecule displayed a specific surface area in data set [1] (powder as obtained) of 12.51 m^2/g.

Regarding `Cc1ccc(-c2nc(CCOc3cccc4c3CCC=C4CCC(=O)O)c(C)o2)cc1` [Adjustment Example 5, 3-(5-{2-[5-methyl-2-(4-methylphenyl)-1,3-oxazol-4-yl]ethoxy}-3,4-dihydronaphthalen-1-yl)propanoic acid], in data set [1] (powder as obtained), the specific surface area is 5.00 m^2/g.

In the case of `Cc1ccc(-c2nc(CCOc3cccc4c3CCC=C4CCC(=O)O)c(C)o2)cc1` [Adjustment Example 6, 3-(5-{2-[5-methyl-2-(4-methylphenyl)-1,3-oxazol-4-yl]ethoxy}-3,4-dihydronaphthalen-1-yl)propanoic acid], the “Dissolution rate (%)” value was 0.00% in data set [3] (0 minutes); 32.3% in data set [3] (5 minutes); 41.7% in data set [3] (10 minutes); 48.0% in data set [3] (15 minutes); 58.5% in data set [3] (30 minutes); 64.3% in data set [3] (45 minutes). Further, in data set [3] (60 minutes), the “Dissolution rate (%)” value stood at 68.0%. The same molecule came in with a specific surface area in data set [1] (powder as obtained) of 5.46 m^2/g.

`Cc1ccc(-c2nc(CCOc3cccc4c3CCC=C4CCC(=O)O)c(C)o2)cc1` [Compound A, 3-(5-{2-[5-methyl-2-(4-methylphenyl)-1,3-oxazol-4-yl]ethoxy}-3,4-dihydronaphthalen-1-yl)propanoic acid]: the specific surface area in data set [1] (powder as obtained) turned out to be 2.4 m^2/g.
